Data taken from patent US9879303B2, “Chromogenic glucuronidase substrates and uses” (Glycosynth Limited, priority 2013, dated 2018).
Where a name gives a salt, the structure may show the parent alone.

System: E. coli clinical isolates
Experiment: screen of strains in broth medium containing FAC
Assay type: cell-based
Parameters: key to colour: Red, Green, Black or Purple mean strong colour; Red, Green, Black or Purple mean strong colour; Red, Green, Black or Purple mean strong colour; Red, Green, Black or Purple mean strong colour; +/− means less colour than strong; Tr means a trace of colour, less than +/−; — means no colour
Settings: for colour: 37° C. 18 hours
From the text: In order to obtain a fuller picture of the sensitivity of the substrates, they were screened with 100 different clinical isolates of E. coli in a liquid medium containing FAC. The isolates were chosen at random from the Microbiology Department, Freeman Hospital, Newcastle Upon Tyne, UK. The effectiveness of the new substrates was compared with three other media which all contained indoxyl-β-D-glucuronides. One was a commercial medium, CPS ID 3 (bioMérieux SA, Lyon, France). […] This medium was employed as a control. Among the β-D-glucuronidase producing strains of E. coli there is a large variation in the quantity of the enzyme produced and it is almost certain that the CPS ID 3 medium has been rigorously optimised to allow good growth of all the target organisms and maximum expression of the target enzymes. Therefore, two indoxyl glucuronides, X-β-D-glucuronide CHA salt and Rose-β-D-glucuronide CHA salt were also tested in a simple agar medium to allow a direct comparison of the sensitivity of these Indoxyl glucuronides when used in a medium that has not been optimised for the growth of the target organism. The comparison of the results for Rose-β-D-glucuronide and the CPS ID 3 medium was of particular significance as the commercial medium also uses Rose-β-D-glucuronide for the detection of E. coli. For consistency, the four glucuronides were all chosen as their CHA salts. As already stated, it is not anticipated that the salt form is critical to their performance. Currently. X-β-D-glucuronide is often used as either the CHA salt or the sodium salt. Brenner and colleagues [K. P. Brenner et al, Appl. Environ. Microbiol., 59, 3534-3544, (1993)] found no difference in the performance of the CHA and sodium salt forms with their application using indoxyl-β-D-glucuronide, neither in respect of colour development nor in the recovery of E. coli.
The two indoxyl glucuronides used produce insoluble endpoints following hydrolysis, as does the CPS ID 3 medium. It was therefore necessary to test these two substrates on agar plates. In contrast, catechol-β-D-glucuronide (1) and DHN-β-D-glucuronide (2b) give much more soluble endpoints best suited to liquid media and were therefore tested in a broth medium. Each broth was prepared using proteose peptone (Oxoid, Basingstoke, UK) (2 g), NaCl (1 g) and FAC (100 mg) in DI water (180 mL). This mixture was autoclaved and cooled to room temperature before being dispensed into bijoux (100×1.8 mL). Catechol β-D-glucuronide CHA salt (1) or DHN-β-D-glucuronide CHA salt (2b) (60 mg) were each dissolved in water (20 mL) and filtered to sterilize before being aseptically dispensed into successive bijoux (0.2 mL) containing the broth solution. The broth/substrate solutions were then inoculated with bacterial suspensions made up to 0.5 McFarland standard (2 μL per bijoux). X-β-D-glucuronide CHA salt (Glycosynth Ltd, Warrington, UK) (10 mg) was dissolved in NMP (200 μL). Rose-β-D-glucuronide CHA salt (Glycosynth Ltd, Warrington, UK) (20 mg) was dissolved in NMP (200 μL). These solutions were then added to Columbia agar (Oxoid, Basingstoke, UK) (100 mL) and inoculated with bacterial suspensions made up to 0.5 McFarland standard (1 μL). The plates and broths were incubated at 37° C. for 18 hours in air.

[1] = 100 E. coli strains after 18 h incubation, broth

## O=C(O)C1OC(Oc2cc3ccccc3cc2O)C(O)C(O)C1O [Compound 2b, DHN-β-D-Glucuronide CHA Salt]
[1]
  % Sensitivity: 82%
  Negative strains: 18
  Positive strains: 82
E. coli 260262P, broth
  colour: Purple
E. coli 260280Z, broth
  colour: Purple
E. coli 260310H, broth
  colour: Purple
E. coli 260313A, broth
  colour: —
E. coli 260316T, broth
  colour: —
E. coli 260327V, broth
  colour: Purple
E. coli 260330Y, broth
  colour: Purple
E. coli 260333P, broth
  colour: —
E. coli 260345F, broth
  colour: Purple
E. coli 260348K, broth
  colour: Purple
E. coli 260354W, broth
  colour: Purple
E. coli 260364H, broth
  colour: —
E. coli 260370C, broth
  colour: Purple
E. coli 260375E, broth
  colour: Purple
E. coli 260390B, broth
  colour: —
E. coli 260396Z, broth
  colour: Purple
E. coli 260398Q, broth
  colour: Purple
E. coli 260400N, broth
  colour: —
E. coli 260401Q, broth
  colour: Purple
E. coli 260402H, broth
  colour: Purple
E. coli 260404W, broth
  colour: Purple
E. coli 260405P, broth
  colour: Purple
E. coli 260406A, broth
  colour: —
E. coli 260406Y, broth
  colour: Purple
E. coli 260407F, broth
  colour: Purple
E. coli 260408C, broth
  colour: Purple
E. coli 260411Z, broth
  colour: Purple
E. coli 260412Q, broth
  colour: Purple
E. coli 260414H, broth
  colour: Purple
E. coli 260415Y, broth
  colour: Purple
E. coli 260416W, broth
  colour: Purple
E. coli 260417P, broth
  colour: Purple
E. coli 260422Y, broth
  colour: Purple
E. coli 260424P, broth
  colour: Purple
E. coli 260425A, broth
  colour: Purple
E. coli 260426F, broth
  colour: Purple
E. coli 260428T, broth
  colour: Purple
E. coli 260431N, broth
  colour: Purple
E. coli 260432E, broth
  colour: Purple
E. coli 260433H, broth
  colour: Purple
E. coli 260434Y, broth
  colour: Purple
E. coli 260435W, broth
  colour: Purple
E. coli 260436P, broth
  colour: Purple
E. coli 260437A, broth
  colour: —
E. coli 260438F, broth
  colour: Purple
E. coli 260439C, broth
  colour: Purple
E. coli 260440S, broth
  colour: Purple
E. coli 260441G, broth
  colour: Purple
E. coli 260458Y, broth
  colour: Purple
E. coli 260459W, broth
  colour: Purple
E. coli 260463D, broth
  colour: Purple
E. coli 260464G, broth
  colour: Purple
E. coli 260471B, broth
  colour: —
E. coli 260478N, broth
  colour: —
E. coli 260479Q, broth
  colour: Purple
E. coli 260480M, broth
  colour: Purple
E. coli 260481J, broth
  colour: Purple
E. coli 260483R, broth
  colour: —
E. coli 260485D, broth
  colour: Purple
E. coli 260486L, broth
  colour: Purple
E. coli 260492J, broth
  colour: Purple
E. coli 260494B, broth
  colour: Purple
E. coli 260495R, broth
  colour: Purple
E. coli 260497D, broth
  colour: Purple
E. coli 260502G, broth
  colour: Purple
E. coli 260503Z, broth
  colour: Purple
E. coli 260504N, broth
  colour: Purple
E. coli 260505Q, broth
  colour: —
E. coli 260506E, broth
  colour: Purple
E. coli 260508Y, broth
  colour: Purple
E. coli 260509W, broth
  colour: Purple
E. coli 260510R, broth
  colour: Purple
E. coli 260511X, broth
  colour: Purple
E. coli 260514G, broth
  colour: —
E. coli 260515Z, broth
  colour: Purple
E. coli 260521S, broth
  colour: Purple
E. coli 260522Z, broth
  colour: Purple
E. coli 260532S, broth
  colour: Purple
E. coli 260533G, broth
  colour: Purple
E. coli 260536Q, broth
  colour: Purple
E. coli 260537E, broth
  colour: —
E. coli 260538H, broth
  colour: —
E. coli 260539Y, broth
  colour: Purple
E. coli 260541R, broth
  colour: Purple
E. coli 260545G, broth
  colour: Purple
E. coli 260547N, broth
  colour: Purple
E. coli 260548Q, broth
  colour: Purple
E. coli 260549E, broth
  colour: Purple
E. coli 260553X, broth
  colour: —
E. coli 260554D, broth
  colour: Purple
E. coli 260555L, broth
  colour: Purple
E. coli 260563B, broth
  colour: Purple
E. coli 260564R, broth
  colour: Purple
E. coli 260578D, broth
  colour: —
E. coli 2603121P, broth
  colour: —
E. coli 2604399E, broth
  colour: Purple
E. coli O157 non-toxigenic, broth
  colour: —
Broth with FAC, in words
  colour of positive solutions: purple solutions
